Experimental data as given in patent publication US5763483A, “Carbocyclic compounds” (priority 1996, dated 1998).

These molecules were tested against neuraminidase (assay: Enzyme Inhibition (in vitro neuraminidase screen)).
Assay type: biochemical
Text: Compositions of the invention are screened for inhibitory activity against neuraminidase by any of the conventional techniques for evaluating enzyme activity. Within the context of the invention, typically compositions are first screened for inhibition of neuraminidase in vitro and compositions showing inhibitory activity are then screened for activity in vivo. Compositions having in vitro Ki (inhibitory constants) of less then about 5×10^-6 M, typically less than about 1×10^-7 M and preferably less than about 5×10^-8 M are preferred for in vivo use.
Useful in vitro screens have been described in detail and will not be elaborated here. However, Itzstein, M. von et al.; "Nature", 363(6428):418-423 (1993), in particular page 420, column 2, full paragraph 3, to page 421, column 2, first partial paragraph, describes a suitable in vitro assay of Potier, M.; et al.; "Analyt. Biochem.", 94:287-296 (1979), as modified by Chong, A. K. J.; et al.; "Biochem. Biophys. Acta", 1077:65-71 (1991); and Colman, P. M.; et al.; International Publication No. WO 92/06691 (Int. App. No. PCT/AU90/00501, publication date Apr. 30, 1992) page 34, line 13, to page 35, line 16, describes another useful in vitro screen.
Enzyme Inhibition: Using the methods of screening in vitro activity described above, the following activities were observed (+10-100 μm, ++1-10 μm, +++<1.0 μm): […]
Work on `COCO[C@@H]1C=C(C(=O)O)C[C@H](N)[C@H]1NC(C)=O` [Compound 114] yielded an IC50 of 1000 to 10000 nM.
`CC(=O)N[C@@H]1[C@@H](N)CC(C(=O)O)=C[C@H]1OCC(O)CO` (stereo partly drawn) [Compound 8] showed an IC50 of 1000 to 10000 nM.
`CC(=O)N[C@H]1[C@H](O)C=C(C(=O)O)C[C@@H]1NC(=N)N` [Compound 94] showed an IC50 of less than 1000 nM.
